pIC50: −log10 of the molar value. In brackets after ≈: the same amount, converted by molar mass. Entries after “also recorded” stand apart in the source; their conditions may differ.

In assay [1] the test system is E. coli (ATCC 25922) transformed with the plasmid pMM, bearing the APH(3')IIa gene. Nature of the assay: Antibiotic activity disk assay, kanamycin/neomycin resistant E. coli. The assay is classed as cell-based. To be noted: FIG. 7B. As for the experimental part:
(§1) E. coli (ATCC 25922) and P. aeruginosa (ATCC 27853) (BD Bioscience) were inoculated in 3 mL of the medium 2 (U.S. Pharmacopia), containing 6 g peptone, 3 g yeast extract and 1.5 g beef extract per 1 L, pH 6.6, and were grown in a shaker for 6 h at 37° C. until an OD 560=0.6-0.8 was reached.
(§2) For the antibiotic disk assay, […] of each bacterial inoculum was mixed with 10 mL of melted agar (1.5% medium 2 agar, BD Bioscience) at 50-55° C. and poured onto 100 mm Petri dishes. Sterile Whatmann 3 MM 5 mm paper disks were soaked with antibiotic solutions and allowed to dry. The disks were positioned evenly on the surface of bacterial-inoculated solid agar and the plates were incubated at 37° C. for 1-2 days. MIC and bactericide index measurements.

Assay [2] has as its system E. coli S30 extract, containing 70S ribosomes. Nature of the assay: In vitro protein translation (CAT mRNA, 35S methionine incorporation). Type of assay: biochemical. The settings on record: quantitation of gel bands, read-out: IC50, concentration producing 50% inhibition of translation.
Procedure: Protein translation was performed from chloramphenicol acetyl transferase (CAT) mRNA. […] A commercial E. coli ribosomal suspension was supplemented with an E. coli extract containing the required elements for translation. These include translation factors, tRNAs, and aminoacyl tRNA synthases. Plasmid, T7 RNA polymerase and amino acids were added to the reaction mixture, and both transcription and translation steps were performed in the same vial. The effects of the aminoglycosides on the translation process were evaluated by measuring the incorporation of ^35S methionine in the translated chloramphenicol acetyl transferase protein.
In vitro translation was performed by using PROTEINscript™-PRO (Ambion) kit. […] Reaction mixtures contained appropriate concentrations of antibiotic (neomycin B, D- and L-neamine). The protein was translated from CAT mRNA, transcribed from control DNA template containing CAT gene under control of the T7 promotor. The product, ˜25 kDa chloramphenicol acetyl transferase, was labeled during translation with 1 μCi ^35S methionine (New England Nuclear) per reaction (no cold methionine was added).
Following the translation, the samples were analyzed by electrophoresis on 4-20% SDS mini-gels (Invitrogen) for 1.5 h at 120V. Gels were fixed with 40% methanol/10% acetic acid and exposed to Molecular Dynamics phosphoimager plates, which were read on a Personal FX phosphoimager (Bio-Rad) and quantitated using QuantityOne™ software.
The test system of assay [3] is E. coli (ATCC 25922). Nature of the assay: Antibiotic activity disk assay, wild type E. coli. To be noted: FIG. 7A. The assay is classed as cell-based. The protocol: as §1, §2
Assay [4] deals with E. coli (ATCC 25922). Nature of the assay: Bactericidal activity (bactericide index). The assay is classed as cell-based. To be noted: 3 h incubation, FIG. 8. As for the experimental part:
The bactericidal activity of each antibiotic was investigated at concentrations of 0.5-4×MIC in medium E. coli (ATCC 25922) inoculum was added to 0.5 mL medium 2 to OD 600 ˜0.1 together with different antibiotic concentrations. The samples were incubated at 37° C. for 3 hrs, and the bacteria were collected by centrifugation. The bacterial pellets were washed with 0.5 mL of medium 2 and were plated on 1.5% medium 2 agar in 100 mm Petri dishes. The plates were incubated for 1-2 days at 37° C. and mean log 10 change in viable count was calculated and plotted vs drug concentration.

The subject of a further assay is E. faecalis. The assay is described as follows: Antibacterial activity against E. faecalis. Type of assay: cell-based.
In assay [5] the test system is P. aeruginosa (ATCC 27853). The assay is described as follows: MIC, P. aeruginosa. The assay is classed as cell-based. The settings on record: growth inhibition greater than 90%. As for the experimental part: (§3) Minimal inhibitory concentrations (MIC) were measured according to the published method (Greenberg, W. A., Priestley, E. S., Sears, P. S., Alper, P. B., Rosenbohm, C., Hendrix, M., Hung, S.-C., & Wong, C.-H. (1999) J. Am. Chem. Soc. 121, 6527-6541). E. coli (ATCC 25922) (both wild type and pMM-transformed) and P. aeruginosa (ATCC 27853) were grown in medium 2 to an optical density OD 600 of 0.6-0.8. The inoculi were diluted to OD 600 ˜0.1 in medium 2 and 1 mL of the culture was placed in 13 mL test tubes. The desired concentrations of antibiotic were added from stock solutions. […] The absorbance at 600 nm of each sample was read and MIC was taken as the lowest antibiotic concentration inhibiting bacterial growth by greater than 90%.

For assay [6], the system named is E. coli (ATCC 25922) transformed with pMM plasmid bearing APH(3')IIa. The assay is described as follows: MIC, kanamycin/neomycin resistant E. coli. Type of assay: cell-based. The settings on record: growth inhibition greater than 90%. As for the experimental part: as §1, §3
The subject of assay [7] is E. coli (ATCC 25922). The assay is described as follows: MIC, wild type E. coli. To be noted: growth inhibition greater than 90%. The assay is classed as cell-based. The protocol: as §3
The subject of another assay is S. aureus. Nature of the assay: Antibacterial activity against S. aureus. Type of assay: cell-based.

In the case of `NCC1OC(OC2C(N)CC(N)C(O)C2O)C(N)C(O)C1O` [L-Neamine], the “Antibiotic activity in disk assay, kanamycin/neomycin resistant E. coli” value in [1] is on record as “maintained antibiotic activity; also recorded: maintaines substantially the same level of activity”. Moreover, the pIC50 in assay [2] was 3.71. In the assay on E. coli (ATCC 25922) [3], the “Antibiotic activity in disk assay, WT E. coli” value was “somewhat lower activity”. The “Concentration at which bactericidal effect begins” value with E. coli (ATCC 25922) [4] came out at 600 µM. Besides, in the assay with E. faecalis, the “Antibacterial activity against E. faecalis” value was “little to no antibacterial activity”. Besides, in [5], the “Minimal inhibitory concentration (MIC), P. aeruginosa” value came to 1600 µM (≈ 516 µg/mL). Further, in assay [6], the “Minimal inhibitory concentration (MIC), E. coli kan/neo resistant” value was found to be 2100 µM (≈ 677 µg/mL). In addition, the “Minimal inhibitory concentration (MIC), E. coli” value with E. coli (ATCC 25922) [7] stood at 1300 µM (≈ 419 µg/mL). For the same compound, the “Antibacterial activity against S. aureus” value in the assay with S. aureus is “little to no antibacterial activity”.

These data come from patent US7244712B2, “Aminoglycoside antibiotics and methods of using same” (priority 2004, dated 2007).
